Where “and” joins values, the source holds several entries; their conditions need not be identical. Equal values may be shown once. Toxic doses and inconclusive results are not listed.
Tested on: BDF1 mice, B16 melanoma ip, median survival T/C
Assay: NCI In Vivo Anticancer Drug Screen. Data for tumor model B16 Melanoma (intraperitoneal) in B6D2F1 (BDF1) mice
Conditions: endpoint: median survival time, higher = longer survival
Outline: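 In this screen, activity was judged from survival or tumor size in treated versus vehicle-treated tumor-bearing mice, reported as T/C.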

[1] = dose: 100.0 mg/kg/injection, schedule: Q01DX009 (ip), vehicle: Klucel (hydroxypropylcellulose) (HPC)
[2] = dose: 200.0 mg/kg/injection, schedule: Q01DX009 (ip), vehicle: Klucel (hydroxypropylcellulose) (HPC)
[3] = dose: 12.5 mg/kg/injection, schedule: Q01DX009 (ip), vehicle: Klucel (hydroxypropylcellulose) (HPC)
[4] = dose: 25.0 mg/kg/injection, schedule: Q04DX003 (ip), vehicle: Klucel (hydroxypropylcellulose) (HPC)
[5] = dose: 50.0 mg/kg/injection, schedule: Q04DX003 (ip), vehicle: Klucel (hydroxypropylcellulose) (HPC)
[6] = dose: 100.0 mg/kg/injection, schedule: Q04DX003 (ip), vehicle: Klucel (hydroxypropylcellulose) (HPC)
[7] = dose: 400.0 mg/kg/injection, schedule: Q04DX003 (ip), vehicle: Klucel (hydroxypropylcellulose) (HPC)
[8] = dose: 200.0 mg/kg/injection, schedule: Q04DX003 (ip), vehicle: Klucel (hydroxypropylcellulose) (HPC)
[9] = dose: 25.0 mg/kg/injection, schedule: Q01DX009 (ip), vehicle: Klucel (hydroxypropylcellulose) (HPC)
[10] = dose: 2.0 mg/kg/injection, schedule: Q01DX009 (ip), vehicle: Klucel (hydroxypropylcellulose) (HPC)
[11] = dose: 3.13 mg/kg/injection, schedule: Q01DX009 (ip), vehicle: saline with Tween-80
[12] = dose: 6.25 mg/kg/injection, schedule: Q01DX009 (ip), vehicle: saline with Tween-80
[13] = dose: 12.5 mg/kg/injection, schedule: Q01DX009 (ip), vehicle: saline with Tween-80
[14] = dose: 25.0 mg/kg/injection, schedule: Q01DX009 (ip), vehicle: saline with Tween-80
[15] = dose: 50.0 mg/kg/injection, schedule: Q01DX009 (ip), vehicle: saline with Tween-80

COc1c([N+](=O)[O-])cc(C(=O)O)cc1[N+](=O)[O-] was tested. Which T/C [1] did it give?
The T/C was 92 % of control.

What about the T/C [2] of the same molecule?
Its T/C is 92 % of control.

For CCC[CH2][Sn]([Cl])([CH2]CCC)[S]C(=S)NCCNC(=S)[S][Sn]([Cl])([CH2]CCC)[CH2]CCC, which T/C (dose: 3.12 mg/kg/injection, schedule: Q01DX009 (ip), vehicle: Klucel (hydroxypropylcellulose) (HPC)) is on record?
The T/C was 94 % of control.

What about the T/C (dose: 6.25 mg/kg/injection, schedule: Q01DX009 (ip), vehicle: Klucel (hydroxypropylcellulose) (HPC)) of the same molecule?
Its T/C is 96 % of control.

What about the T/C [3] of the same molecule?
Its T/C is 101 % of control.

COc1ccc(C2=CN(S(=O)(=O)c3ccc(C)cc3)CCc3ccccc32)cc1 was tested. Which T/C [4] did it give?
Its T/C is 112 % of control.

What about the T/C [5] of the same molecule?
Its T/C is 110 % of control.

And the T/C [6]?
Its T/C is 91 % of control and 111 % of control.

What about the T/C [7] of the same molecule?
Its T/C is 90 % of control.

Cc1ccc(S(=O)(=O)N/N=C/c2ccccc2)cc1 was tested. Which T/C (dose: 50.0 mg/kg/injection, schedule: Q01DX009 (ip), vehicle: other) did it give?
The T/C was 104 % of control.

And the T/C (dose: 100.0 mg/kg/injection, schedule: Q01DX009 (ip), vehicle: other)?
The T/C was 110 % of control.

And the T/C (dose: 200.0 mg/kg/injection, schedule: Q01DX009 (ip), vehicle: other)?
The T/C was 103 % of control.

What about the T/C (dose: 400.0 mg/kg/injection, schedule: Q01DX009 (ip), vehicle: other) of the same molecule?
Its T/C is 106 % of control.

Which results are given for COc1ccc2c(c1)CCC(c1ccccc1)=C2c1ccc(OCCN2CCCC2)cc1?
T/C (dose: 6.0 mg/kg/injection, schedule: Q01DX009 (ip), vehicle: saline sonified): 102 % of control; T/C (dose: 12.0 mg/kg/injection, schedule: Q01DX009 (ip), vehicle: saline sonified): 111 % of control; T/C (dose: 24.0 mg/kg/injection, schedule: Q01DX009 (ip), vehicle: saline sonified): 111 % of control

Which results are given for OCc1cc2ccccc2[nH]1?
T/C [6]: 112 % of control; T/C [8]: 110 % of control; T/C [7]: 106 % of control

What does the source list for CC(=O)CC(=O)Nc1cc(C)c(NC(=O)CC(C)=O)cc1C?
T/C [1]: 93 % of control; T/C [2]: 93 % of control

With CC(C)N(C(=O)c1ccccc1Cl)c1ccccc1 as the molecule, how does the T/C [9] read?
Its T/C is 93 % of control.

And the T/C [1]?
The T/C was 106 % of control.

What does the source list for CCCCCCCCCCNCCC(=O)O?
T/C (dose: 0.58 mg/kg/injection, schedule: Q01DX009 (ip), vehicle: saline): 98 % of control; T/C (dose: 1.1 mg/kg/injection, schedule: Q01DX009 (ip), vehicle: saline): 96 % of control; T/C (dose: 2.3 mg/kg/injection, schedule: Q01DX009 (ip), vehicle: saline): 95 % of control; T/C (dose: 37.5 mg/kg/injection, schedule: Q01DX009 (ip), vehicle: saline): 102 % of control

Which results are given for CCC1=C(C[C@H]2NCCc3cc(OC)c(OC)cc32)C[C@H]2c3cc(OC)c(OC)cc3CCN2C1?
T/C [10]: 114 % of control; T/C (dose: 2.0 mg/kg/injection, schedule: Q01DX009 (ip), vehicle: saline): 103 % of control and 111 % of control; T/C (dose: 4.0 mg/kg/injection, schedule: Q01DX009 (ip), vehicle: saline): 106 % of control and 107 % of control; T/C (dose: 5.0 mg/kg/injection, schedule: Q01DX005 (ip), vehicle: saline): 118 % of control; T/C (dose: 5.0 mg/kg/injection, schedule: Q01DX009 (ip), vehicle: Klucel (hydroxypropylcellulose) (HPC)): 116 % of control

Which T/C (dose: 6.25 mg/kg/injection, schedule: Q04DX003 (ip), vehicle: Klucel (hydroxypropylcellulose) (HPC)) does the source give for CCOC(=O)N1c2ccccc2C=CC1OCC (centres undefined) here?
Its T/C is 105 % of control.

And the T/C (dose: 12.5 mg/kg/injection, schedule: Q04DX003 (ip), vehicle: Klucel (hydroxypropylcellulose) (HPC))?
The T/C was 105 % of control.

And the T/C [4]?
Its T/C is 89 % of control and 105 % of control.

What does the source list for O=C(O)C1OC1C(=O)O (centres undefined)?
T/C (dose: 75.0 mg/kg/injection, schedule: Q01DX009 (ip), vehicle: saline): 120 % of control; T/C (dose: 300.0 mg/kg/injection, schedule: Q01DX009 (ip), vehicle: saline): 118 % of control

How did the T/C [5] turn out when CCCCCCCCCCCCSC(=O)CCC(=O)O was run?
The T/C was 108 % of control.

And the T/C [6]?
The T/C was 108 % of control.

And the T/C [8]?
The T/C was 102 % of control.

What does the source list for CC(C)C(=O)OCC1OC(n2cnc3c(=S)nc(N)[nH]c32)C(OC(=O)C(C)C)C1OC(=O)C(C)C (centres undefined)?
T/C [11]: 114 % of control; T/C [12]: 108 % of control; T/C [13]: 110 % of control

CCC(C)C(N)C(=O)NC(CC(N)=O)C(=O)NC(CC(C)C)C(=O)NC(CCCCN)C(=O)NC(C)C(=O)NC(CC(C)C)C(=O)NC(C)C(=O)NC(C)C(=O)NC(CC(C)C)C(=O)NC(C)C(=O)NC(CCCCN)C(=O)NC(CCCCN)C(=O)NC(C(=O)NC(CC(C)C)C(N)=O)C(C)CC (centres undefined) was tested. Which T/C (dose: 1.0 mg/kg/injection, schedule: Q01DX009 (ip), vehicle: Klucel (hydroxypropylcellulose) (HPC)) did it give?
The T/C was 97 % of control.

What about the T/C [10] of the same molecule?
Its T/C is 97 % of control.

What about the T/C (dose: 4.0 mg/kg/injection, schedule: Q01DX009 (ip), vehicle: Klucel (hydroxypropylcellulose) (HPC)) of the same molecule?
Its T/C is 91 % of control.

Which results are given for O=NN(CCF)C(=O)NC1CCC(=O)NC1=O (centres undefined)?
T/C (dose: 1.88 mg/kg/injection, schedule: Q01DX001 (ip), vehicle: saline): 105 % of control; T/C (dose: 7.5 mg/kg/injection, schedule: Q01DX001 (ip), vehicle: saline): 120 % of control; T/C (dose: 15.0 mg/kg/injection, schedule: Q01DX001 (ip), vehicle: saline): 166 % of control; T/C (dose: 30.0 mg/kg/injection, schedule: Q01DX001 (ip), vehicle: saline): 189 % of control; T/C (dose: 60.0 mg/kg/injection, schedule: Q01DX001 (ip), vehicle: saline): 209 % of control

Which results are given for COc1ccc2c3c(c4cc(OC)c(OC)cc4c2c1)C[C@H]1CCCCN1C3?
T/C (dose: 0.13 mg/kg/injection, schedule: Q01DX009 (ip), vehicle: saline): 114 % of control; T/C (dose: 0.25 mg/kg/injection, schedule: Q01DX009 (ip), vehicle: saline): 109 % of control; T/C (dose: 0.5 mg/kg/injection, schedule: Q01DX009 (ip), vehicle: saline): 104 % of control

For COc1cc(C(C)c2cc3c(cc2OCCO)OCO3)cc(OC)c1OC (centres undefined), which T/C [14] is on record?
Its T/C is 107 % of control.

And the T/C [15]?
The T/C was 104 % of control.

What about the T/C (dose: 100.0 mg/kg/injection, schedule: Q01DX009 (ip), vehicle: saline with Tween-80) of the same molecule?
Its T/C is 110 % of control.

And the T/C (dose: 200.0 mg/kg/injection, schedule: Q01DX009 (ip), vehicle: saline with Tween-80)?
The T/C was 112 % of control.

What does the source list for Cc1ccc(NC(=S)NC(Cc2ccccc2)c2ccccc2)c(C)c1 (centres undefined)?
T/C [3]: 111 % of control; T/C [9]: 109 % of control; T/C (dose: 50.0 mg/kg/injection, schedule: Q01DX009 (ip), vehicle: Klucel (hydroxypropylcellulose) (HPC)): 102 % of control; T/C (dose: 75.0 mg/kg/injection, schedule: Q04DX003 (ip), vehicle: Klucel (hydroxypropylcellulose) (HPC)): 94 % of control; T/C [1]: 88 % of control; T/C (dose: 150.0 mg/kg/injection, schedule: Q04DX003 (ip), vehicle: Klucel (hydroxypropylcellulose) (HPC)): 94 % of control; T/C (dose: 300.0 mg/kg/injection, schedule: Q04DX003 (ip), vehicle: Klucel (hydroxypropylcellulose) (HPC)): 102 % of control

For C=C1C(=O)OC2C=C(C)C3C(O)CC(C)(O)C3CC12 (centres undefined), which T/C [1] is on record?
The T/C was 88 % of control.

Which results are given for Cc1ccc2c(c1)P(=O)(O)c1cc(Cl)ccc1O2?
T/C (dose: 86.4 mg/kg/injection, schedule: Q01DX009 (ip), vehicle: water): 100 % of control; T/C (dose: 144.0 mg/kg/injection, schedule: Q01DX009 (ip), vehicle: water): 94 % of control; T/C (dose: 240.0 mg/kg/injection, schedule: Q01DX009 (ip), vehicle: water): 101 % of control; T/C (dose: 259.0 mg/kg/injection, schedule: Q04DX003 (ip), vehicle: water): 123 % of control; T/C (dose: 400.0 mg/kg/injection, schedule: Q01DX009 (ip), vehicle: water): 98 % of control; T/C (dose: 432.0 mg/kg/injection, schedule: Q04DX003 (ip), vehicle: water): 88 % of control

Which results are given for ClC(Cl)(Cl)c1nc2nccnc2[nH]1?
T/C [11]: 102 % of control; T/C [12]: 94 % of control; T/C [13]: 105 % of control; T/C [14]: 91 % of control

CCC(=O)Nc1cccc(Cl)c1 was tested. Which T/C (dose: 75.0 mg/kg/injection, schedule: Q04DX003 (ip), vehicle: saline with Tween-80) did it give?
Its T/C is 110 % of control.

And the T/C (dose: 150.0 mg/kg/injection, schedule: Q04DX003 (ip), vehicle: saline with Tween-80)?
The T/C was 97 % of control.

What about the T/C (dose: 300.0 mg/kg/injection, schedule: Q04DX003 (ip), vehicle: saline with Tween-80) of the same molecule?
Its T/C is 100 % of control.

With [CH3][Sn]([CH3])([CH3])[S]C(=S)N1CCOCC1 as the molecule, how does the T/C (dose: 0.75 mg/kg/injection, schedule: Q01DX009 (ip), vehicle: Klucel (hydroxypropylcellulose) (HPC)) read?
The T/C was 100 % of control.

What about the T/C (dose: 1.5 mg/kg/injection, schedule: Q01DX009 (ip), vehicle: Klucel (hydroxypropylcellulose) (HPC)) of the same molecule?
The T/C was 95 % of control.

For S=C=NCCc1ccccc1, which T/C [13] is on record?
The T/C was 111 % of control.

What about the T/C [14] of the same molecule?
The T/C was 114 % of control.

What about the T/C [15] of the same molecule?
Its T/C is 96 % of control.
